Source: patent US9085584B2, “Substituted pyrido[3,2-E][1,2,4]-triazolo[4,3-A]pyrazines for the treatment of central nervous system disorders” (Boehringer Ingelheim International GmbH, priority 2012, dated 2015)

How the values were obtained:
PDE10 = PDE10 (Homo sapiens (Human), UniProt Q9Y233); assay: PDE10 assay with fluorescent substrate (IMAP, fluorescence polarization); type: biochemical
Procedure: (§1) Another, non radioactive, in-vitro assay was performed as follows • c) Phosphodiesterase (PDE) 2A and 10 Assay with Fluorescent Substrate Assay Principle:
(§2) The PDE reaction cleaves cAMP to AMP. The IMAP system (Molecular Device) using fluorescence polarization (FP) as detection principle was used to measure enzyme activity. A fluorescent labeled cAMP was used as substrate for the reaction, generating a labeled AMP. The fluorescent AMP binds specifically to the large M(III)-based nano-particles which reduces the rotational speed of the substrate and thus increases its polarization.
(§3) The inhibition of PDE 2A or 10 enzyme activity was assessed using IMAP-Phosphodiesterase-cAMP fluorescence labeled substrate (Molecular Devices, Order No. R7506), IMAP TR-FRET screening express (Molecular Devices, Order No. R8160, the TR-FRET component will not be used) and PDE 2A or PDE10 protein expressed upon baculovirus infection in SF9 cells.
(§4) All reactions were performed in 384 well plates, Perkin Elmer black optiplates and IMAP reaction buffer with 0.1% Tween20 (kit component)
(§5) Compounds were serial diluted in DMSO. With an intermediate dilution step with reaction buffer DMSO concentration was reduced to achieve 1% DMSO in the assay reaction. Setup of the assay started with 10 μl enzyme (˜10 ng/well, depending on prep. batch), 5 μl compound, reaction was started by addition of 5 μl labeled cAMP (30 nM, final concentration), immediately mixed for 15 seconds on a Eppendorf mixmate (2000 rpm) followed by an incubation at room temperature for 90 minutes in the dark. Reaction is stopped by adding of 60 μl binding buffer for FP/cAMP (kit component).
(§6) Each assay plate contained wells with vehicle controls (1% DMSO) for the measurement of non-inhibited reaction (=100% control) and wells without enzyme as 0% controls.

[1] = Metabolic stability in pooled liver microsomes; type: in vitro ADME, human; conditions: 1 μM test compound, 37° C.; for Half-life - t½: human liver microsomes; for half-life at 1 μM: human, pooled liver microsomes, pH 7.6, human liver microsomes, read-out: Half-life - t½
Procedure: The metabolic stability of the compounds according to the invention has been investigated as follows:
The metabolic degradation of the test compound was assayed at 37° C. with pooled liver microsomes from various species. The final incubation volume of 100 μl per time point contains TRIS buffer pH 7.6 at room temperature (0.1 M), magnesium chloride (5 mM), microsomal protein (1 mg/mL for human and dog, 0.5 mg/mL for other species) and the test compound at a final concentration of 1 μM. Following a short preincubation period at 37° C., the reactions were initiated by addition of betanicotinamide adenine dinucleotide phosphate, reduced form (NADPH, 1 mM), and terminated by transferring an aliquot into solvent after different time points. […] The half-life was determined by the slope of the semi-logarithmic plot of the concentration-time profile.

PDE 2A = PDE 2A (Homo sapiens (Human), UniProt O00408); assay: PDE 2A assay with fluorescent substrate (IMAP, fluorescence polarization); type: biochemical; conditions: read-out: PDE2 IC50
Chain of PDE 2A (O00408 whole entry, species assumed): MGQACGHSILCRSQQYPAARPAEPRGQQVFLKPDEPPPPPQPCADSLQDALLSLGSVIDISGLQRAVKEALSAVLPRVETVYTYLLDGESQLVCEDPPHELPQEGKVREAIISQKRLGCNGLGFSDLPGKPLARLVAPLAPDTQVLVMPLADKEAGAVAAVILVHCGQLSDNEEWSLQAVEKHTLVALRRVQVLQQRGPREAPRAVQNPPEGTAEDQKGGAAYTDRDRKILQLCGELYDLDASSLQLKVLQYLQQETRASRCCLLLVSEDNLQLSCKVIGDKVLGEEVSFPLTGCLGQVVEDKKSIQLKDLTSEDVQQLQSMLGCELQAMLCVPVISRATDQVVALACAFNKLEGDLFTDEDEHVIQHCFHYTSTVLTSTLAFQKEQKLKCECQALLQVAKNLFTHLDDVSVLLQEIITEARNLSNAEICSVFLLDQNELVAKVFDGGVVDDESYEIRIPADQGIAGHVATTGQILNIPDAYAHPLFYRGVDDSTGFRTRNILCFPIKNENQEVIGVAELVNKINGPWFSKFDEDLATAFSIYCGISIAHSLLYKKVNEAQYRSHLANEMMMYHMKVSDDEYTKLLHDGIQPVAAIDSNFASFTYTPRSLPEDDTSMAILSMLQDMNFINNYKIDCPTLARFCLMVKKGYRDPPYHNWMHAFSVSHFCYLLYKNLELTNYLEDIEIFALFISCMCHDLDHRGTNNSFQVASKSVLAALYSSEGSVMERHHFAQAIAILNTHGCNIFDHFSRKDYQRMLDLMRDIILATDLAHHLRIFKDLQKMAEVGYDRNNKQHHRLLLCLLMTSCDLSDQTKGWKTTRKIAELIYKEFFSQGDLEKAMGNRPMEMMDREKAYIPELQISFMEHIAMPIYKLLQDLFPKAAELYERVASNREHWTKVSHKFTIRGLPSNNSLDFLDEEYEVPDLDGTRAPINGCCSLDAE
Procedure: as §1, §2, §3, §4, §5, §6

PDE 10A = PDE 10A (Homo sapiens (Human), UniProt Q9Y233); assay: Radioactive PDE10 assay ([3H]cAMP SPA); type: biochemical
Chain of PDE 10A (Q9Y233 whole entry, species assumed): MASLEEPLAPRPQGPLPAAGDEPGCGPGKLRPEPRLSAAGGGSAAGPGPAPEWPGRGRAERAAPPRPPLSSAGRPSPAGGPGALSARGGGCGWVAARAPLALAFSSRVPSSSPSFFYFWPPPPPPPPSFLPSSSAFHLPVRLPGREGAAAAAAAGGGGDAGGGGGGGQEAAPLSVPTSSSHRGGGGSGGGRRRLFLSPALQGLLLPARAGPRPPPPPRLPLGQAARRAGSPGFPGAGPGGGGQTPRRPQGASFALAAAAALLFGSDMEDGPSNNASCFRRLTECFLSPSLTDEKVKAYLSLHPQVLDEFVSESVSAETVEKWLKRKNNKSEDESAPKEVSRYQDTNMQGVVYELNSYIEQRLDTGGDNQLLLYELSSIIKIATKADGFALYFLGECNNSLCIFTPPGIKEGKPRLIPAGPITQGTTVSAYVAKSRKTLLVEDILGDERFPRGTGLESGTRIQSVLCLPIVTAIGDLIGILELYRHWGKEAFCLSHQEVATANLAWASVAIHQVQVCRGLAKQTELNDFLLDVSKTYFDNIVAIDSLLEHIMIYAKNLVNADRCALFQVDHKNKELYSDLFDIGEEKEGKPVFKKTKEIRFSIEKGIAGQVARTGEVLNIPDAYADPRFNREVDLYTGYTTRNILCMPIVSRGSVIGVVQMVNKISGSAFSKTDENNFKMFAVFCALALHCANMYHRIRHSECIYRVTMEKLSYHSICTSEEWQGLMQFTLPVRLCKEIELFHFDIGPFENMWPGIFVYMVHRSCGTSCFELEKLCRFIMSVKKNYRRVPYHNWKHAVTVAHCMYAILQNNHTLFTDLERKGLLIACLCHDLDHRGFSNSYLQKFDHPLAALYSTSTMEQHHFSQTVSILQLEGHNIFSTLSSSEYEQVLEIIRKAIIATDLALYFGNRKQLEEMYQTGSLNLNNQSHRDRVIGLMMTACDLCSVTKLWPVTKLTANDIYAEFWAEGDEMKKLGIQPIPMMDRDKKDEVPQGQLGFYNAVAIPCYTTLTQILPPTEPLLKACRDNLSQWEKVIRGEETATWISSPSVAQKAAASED
Procedure: Into a 384 well plate (OptiPlate, white), the following components are pipetted (either manually or using automated pipetting devices): • 20 μl test-compound solution (test compound diluted in assay buffer at twofold the desired concentration) • +10 μl PDE 10A preparation (enzyme diluted in assay buffer to a concentration of 0.3 ng/μl protein) • +10 μl cAMP tracer (diluted in assay buffer to a concentration of 80 nM cAMP, specific activity ˜4 mCi/I)
After addition of all 3 components the plates are shortly spun and incubated at room temperature for 60 min. The reaction is stopped by the addition of 20 μl Yttrium SPA PDE Beads containing 18 mM zinc sulphate in water
PDE 10A protein is expressed upon baculovirus infection in SF9 cells. The cells have been incubated upon infection for ˜3 days and protein production was confirmed by Western Blot. The cells were collected by centrifugation and the pellet frozen in liquid nitrogen before it was resuspended in PBS containing 1% Triton X-100 and protease inhibitors. After 45 min incubation on ice, the cell debris was removed by centrifugation (13.000 rpm, 30 min).

hERG channel = hERG channel (Homo sapiens (Human), UniProt Q12809); assay: hERG-channel assay (whole-cell patch clamp, transfected HEK293 cells); type: cell-based; conditions: HEK293 cells stably transfected with hERG cDNA, 35° C.
Chain of hERG channel (Q12809 whole entry): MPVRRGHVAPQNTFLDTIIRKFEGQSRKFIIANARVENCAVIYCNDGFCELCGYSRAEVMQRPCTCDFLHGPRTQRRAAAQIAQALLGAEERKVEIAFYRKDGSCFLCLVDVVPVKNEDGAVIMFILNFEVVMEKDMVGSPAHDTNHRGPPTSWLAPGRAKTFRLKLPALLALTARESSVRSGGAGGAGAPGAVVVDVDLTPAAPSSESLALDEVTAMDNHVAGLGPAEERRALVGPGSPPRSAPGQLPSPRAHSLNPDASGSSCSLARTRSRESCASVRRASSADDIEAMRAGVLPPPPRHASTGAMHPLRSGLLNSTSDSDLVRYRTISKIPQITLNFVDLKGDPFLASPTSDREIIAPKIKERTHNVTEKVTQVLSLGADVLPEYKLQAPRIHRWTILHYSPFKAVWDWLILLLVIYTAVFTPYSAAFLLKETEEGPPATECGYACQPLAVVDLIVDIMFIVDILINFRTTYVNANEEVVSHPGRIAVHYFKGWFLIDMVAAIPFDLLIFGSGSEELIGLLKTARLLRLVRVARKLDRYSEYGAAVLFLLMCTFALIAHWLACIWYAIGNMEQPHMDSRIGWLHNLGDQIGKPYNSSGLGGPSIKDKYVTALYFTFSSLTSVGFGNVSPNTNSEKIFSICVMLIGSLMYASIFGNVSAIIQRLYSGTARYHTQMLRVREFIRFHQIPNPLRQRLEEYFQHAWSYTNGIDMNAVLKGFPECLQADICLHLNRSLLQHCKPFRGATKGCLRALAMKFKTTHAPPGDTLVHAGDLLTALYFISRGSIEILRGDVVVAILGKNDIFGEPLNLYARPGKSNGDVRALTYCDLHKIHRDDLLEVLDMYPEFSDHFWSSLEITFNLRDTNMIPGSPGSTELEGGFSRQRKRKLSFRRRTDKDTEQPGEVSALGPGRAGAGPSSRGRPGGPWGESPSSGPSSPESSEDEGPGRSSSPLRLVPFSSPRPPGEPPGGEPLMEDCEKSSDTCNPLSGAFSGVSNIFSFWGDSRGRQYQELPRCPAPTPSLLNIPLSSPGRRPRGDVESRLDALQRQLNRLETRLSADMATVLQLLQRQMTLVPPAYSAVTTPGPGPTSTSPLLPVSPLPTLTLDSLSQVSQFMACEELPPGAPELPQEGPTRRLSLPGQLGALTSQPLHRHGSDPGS
Source text: hERG (Human Ether-à-go-go-Related Gene)-Channel Assay
hERG channel inhibition of compounds of the present invention has been investigated as follows:
HEK (human embryonic kidney) 293 cells were stably transfected with hERG cDNA.
Cells were superfused with a bath solution containing (mM): NaCl (137), KCl (4.0), MgCl2 (1.0), CaCl2 (1.8), Glucose (10), HEPES (10), pH 7.4 with NaOH. Patch pipettes were made from borosilicate glass tubing using a horizontal puller and filled with pipette solution containing (mM): K-aspartate (130), MgCl2 (5.0), EGTA (5.0), K2ATP (4.0), HEPES (10.0), pH 7.2 with KOH. Resistance of the microelectrodes was in the range between 2 and 5 MΩ.
Stimulation and recording:
Membrane currents were recorded using an EPC-10 patch clamp amplifier and PatchMaster software. hERG-mediated membrane currents were recorded at 35° C., using the whole-cell configuration of the patch-clamp technique. […] During each inter-pulse interval 4 pulses scaled down by a factor of 0.2 were recorded for a P/n leak subtraction procedure. […]
The different concentrations of the test compound were applied sequentially on each of the different cells investigated. A steady state level of baseline current was measured for at least 6 sweeps prior to the application of the first test compound concentration. […]
Peak current amplitudes were measured 3 ms after the ramp to +40 mV. […]

[2] = Animal experiments and sample analysis: plasma, brain and CSF concentration; type: in vivo; conditions: rat, 2 h between administration and CSF sampling
Procedure: In-vivo Effect: Animal Experiments and Sample Analysis (CSF):
Test compounds were administered to animals (rat) different routes at doses of 10.0 or 5 μmol/kg, (both oral and intravenous). After compound administration, the animals were sacrificed in a CO2 chamber and CSF samples were carefully collected by puncture of the cisterna magna. Immediately after CSF sampling, blood was taken by heart puncture and brains were dissected out. Blood was collected in EDTA-coated microvettes and plasma was prepared by centrifugation. Concentration of the test compounds in plasma, CSF or brain homogenate was determined using HPLC-MS-MS.

Chain of PDE10 (Q9Y233 whole entry, species assumed): as the sequence (Q9Y233 whole entry, species assumed) above

Compound	IC50 (PDE10) [nM]	IC50 (PDE 2A) [nM]	other results
Cc1nc2cccnc2n2c(-c3cc(OC4COCC4O)ccc3Cl)nnc12 (racemic) [Example 55]	5300	80	Half-life - t½ [1]: 2.17 h
Cc1nc2ccc(C3CC3)nc2n2c(-c3cc(C4(O)CCOC4)ccc3Cl)nnc12 (racemic) [Example 97]	2140		half-life at 1 μM [1]: 0.85 h
Cc1nc2ccc(C(F)(F)F)nc2n2c(-c3cc(OC4COCC4O)ccc3F)nnc12 (racemic) [Example 106]	1940	160	
Cc1nc2ccc(C3CC3)nc2n2c(-c3cc(OC4COCC4O)ccc3F)nnc12 (racemic) [Example 107]	22	7	
Cc1nc2ccc(C(F)(F)F)nc2n2c(-c3cc(OC4COCC4O)ccc3Cl)nnc12 (racemic) [Example 111]	3980	22	
Cc1nc2cccnc2n2c(-c3cc(C4(O)CCCOC4)ccc3Cl)nnc12 (racemic) [Example 112]	7000	18	
Cc1nc2ccc(C(F)(F)F)nc2n2c(-c3cc(C4(O)CCCOC4)ccc3Cl)nnc12 (racemic) [Example 114]		22	
Cc1nc2ccc(C(F)(F)F)nc2n2c(-c3cc(C4(O)CCOC4)ccc3Cl)nnc12 (racemic) [Example 115]		39	
Cc1nc2cccnc2n2c(-c3cc(OCCO)ccc3Cl)nnc12 [Example 15]			IC50 (PDE 10A): > 10000 nM
Cc1nc2ccc(C3CC3)nc2n2c(-c3cc(OC[C@H](C)O)ccc3Cl)nnc12 [Example 35a]			IC50 (hERG channel): > 10000 nM; Half-life - t½ [1]: 2.17 h
Cc1ccc2nc(C)c3nnc(-c4cc(CO)ccc4Cl)n3c2n1 [Example 60]		19	
Cc1ccc(C2(O)CCC2)cc1-c1nnc2c(C)nc3cccnc3n12 [Example 73]	10000		Half-life - t½ [1]: 2.17 h
Cc1ccc(C(C)(C)O)cc1-c1nnc2c(C)nc3ccc(C4CC4)nc3n12 [Example 75]			conc CSF [2]: 31 nM; conc brain [2]: 383 nM; conc plasma [2]: 1130 nM; Half-life - t½ [1]: 2.17 h
Cc1ccc(C(C)(C)O)cc1-c1nnc2c(C)nc3ccc(C(C)C)nc3n12 [Example 78]			half-life at 1 μM [1]: 1.32 h
Cc1nc2ccc(C3CC3)nc2n2c(-c3cc(CC(C)(C)O)ccc3F)nnc12 [Example 80]			half-life at 1 μM [1]: 1.38 h
Cc1ccc(CC(C)(C)O)cc1-c1nnc2c(C)nc3ccc(C4CC4)nc3n12 [Example 81]			half-life at 1 μM [1]: 0.433 h

Compound	IC50 (PDE10) [nM]	IC50 (PDE 2A) [nM]	other results
Cc1nc2cccnc2n2c(-c3cc(CC(C)(C)O)ccc3Cl)nnc12 [Example 82]			Half-life - t½ [1]: 2.17 h
Cc1nc2ccc(C3CC3)nc2n2c(-c3cc(CC(C)(C)O)ccc3Cl)nnc12 [Example 83]			half-life at 1 μM [1]: 1.67 h
Cc1nc2ccc(C3CC3)nc2n2c(-c3cc(C4(O)CCC4)ccc3F)nnc12 [Example 84]			half-life at 1 μM [1]: 0.65 h
Cc1nc2ccc(C3CC3)nc2n2c(-c3cc(C(C)(C)O)ccc3Cl)nnc12 [Example 85]			Half-life - t½ [1]: 2.17 h
Cc1nc2cccnc2n2c(-c3cc(C4(O)CCC4)ccc3Cl)nnc12 [Example 87]			Half-life - t½ [1]: 2.17 h
Cc1nc2ccc(C3CC3)nc2n2c(-c3cc(C4(O)CCC4)ccc3Cl)nnc12 [Example 88]			half-life at 1 μM [1]: 0.883 h
Cc1ccc2nc(C)c3nnc(-c4cc(C5(O)CCC5)ccc4Cl)n3c2n1 [Example 89]			Half-life - t½ [1]: 2.17 h
Cc1nc2ccc(C(C)C)nc2n2c(-c3cc(C4(O)CCC4)ccc3Cl)nnc12 [Example 91]			half-life at 1 μM [1]: 0.467 h
Cc1nc2ccc(C(C)C)nc2n2c(-c3cc(C4(O)CCC4)ccc3F)nnc12 [Example 92]			half-life at 1 μM [1]: 0.383 h
Cc1nc2cccnc2n2c(-c3cc(C4(O)CCOCC4)ccc3Cl)nnc12 [Example 93]			Half-life - t½ [1]: 2.17 h
Cc1nc2ccc(C3CC3)nc2n2c(-c3cc(C4(O)CCOCC4)ccc3Cl)nnc12 [Example 94]			half-life at 1 μM [1]: 0.633 h
Cc1nc2ccc(C(F)(F)F)nc2n2c(-c3cc(C4(O)CCOCC4)ccc3Cl)nnc12 [Example 96]			half-life at 1 μM [1]: 1.83 h
Cc1nc2ccc(C3CC3)nc2n2c(-c3cc(C(C)(C)CO)ccc3F)nnc12 [Example 101]			half-life at 1 μM [1]: 0.367 h
Cc1ccc2nc(C)c3nnc(-c4cc(C5(O)CCC5)ccc4C)n3c2n1 [Example 102]			Half-life - t½ [1]: 2.17 h
Cc1nc2ccc(C3CC3)nc2n2c(-c3cc(C4(O)CCCOC4)ccc3Cl)nnc12 (stereo not drawn) [Example 113]	3190	0.2	

The next lines start with results.

IC50 (PDE10) [nM]	IC50 (PDE 2A) [nM]	Compound	other results
1830	65	Cc1nc2ccc(C(F)(F)F)nc2n2c(-c3cc(OC4COCC4O)ccc3Cl)nnc12 (single isomer, unassigned) [Example 111a]	
2130	11	Cc1nc2ccc(C(F)(F)F)nc2n2c(-c3cc(OC4COCC4O)ccc3Cl)nnc12 (single isomer, unassigned) [Example 111b]	
2600	25	Cc1nc2cccnc2n2c(-c3cc(C4(O)CCCOC4)ccc3Cl)nnc12 (single isomer, unassigned) [Example 112a]	
2500	68	Cc1nc2cccnc2n2c(-c3cc(C4(O)CCCOC4)ccc3Cl)nnc12 (single isomer, unassigned) [Example 112b]	
	9	Cc1nc2ccc(C(F)(F)F)nc2n2c(-c3cc(C4(O)CCCOC4)ccc3Cl)nnc12 (single isomer, unassigned) [Example 114a]	
10000	11	Cc1nc2ccc(C(F)(F)F)nc2n2c(-c3cc(C4(O)CCCOC4)ccc3Cl)nnc12 (single isomer, unassigned) [Example 114b]	
	82	Cc1nc2ccc(C(F)(F)F)nc2n2c(-c3cc(C4(O)CCOC4)ccc3Cl)nnc12 (single isomer, unassigned) [Example 115a]	
10000	45	Cc1nc2ccc(C(F)(F)F)nc2n2c(-c3cc(C4(O)CCOC4)ccc3Cl)nnc12 (single isomer, unassigned) [Example 115b]	
10000		Cc1ccc(C2(O)CCOCC2)cc1-c1nnc2c(C)nc3ccc(C(F)(F)F)nc3n12 [Example 96b]	
10000		Cc1nc2ccc(C(F)(F)F)nc2n2c(-c3cc(C(C)(C)O)ccc3Cl)nnc12 [Example 103b]	
